Activity calls are given as the source filed them. No cut-off for these calls is given here.
Legend:
[1] = tested on: HeLa; test: Cell cycle arrest in human HeLa cells assessed as accumulation at G1 phase at 100 uM treated 12 hrs after nocodazole challenge by flow cytometry; format: functional, cell-based; settings: TDE = time-dependent effect
[2] = tested on: HeLa; test: Cell cycle arrest in human HeLa cells assessed as accumulation at G2/M phase at 50 ng/ml after 12 hrs by flow cytometry; format: functional
[3] = tested on: HeLa; test: Cell cycle arrest in human HeLa cells assessed as accumulation at G1 phase at 50 ng/ml after 12 hrs by flow cytometry; format: functional
[4] = tested on: HeLa; test: Cell cycle arrest in human HeLa cells assessed as accumulation at G1 phase at 100 uM treated 12 hrs after nocodazole challenge measured after 6 hrs by flow cytometry; format: functional
[5] = tested on: HeLa; test: Cell cycle arrest in human HeLa cells assessed as accumulation at G2/M phase at 100 uM treated 12 hrs after nocodazole challenge measured after 6 hrs by flow cytometry; format: functional
[6] = tested on: HeLa; test: Cell cycle arrest in human HeLa cells assessed as accumulation at G1 phase at 100 uM treated 12 hrs after nocodazole challenge measured after 12 hrs by flow cytometry; format: functional
[7] = tested on: HeLa; test: Cell cycle arrest in human HeLa cells assessed as accumulation at G2/M phase at 100 uM treated 12 hrs after nocodazole challenge measured after 12 hrs by flow cytometry; format: functional
[8] = tested on: HeLa; test: Cell cycle arrest in human HeLa cells assessed as accumulation at G1 phase at 100 uM treated 12 hrs after nocodazole challenge measured after 24 hrs by flow cytometry; format: functional
[9] = tested on: HeLa; test: Cell cycle arrest in human HeLa cells assessed as accumulation at G2/M phase at 100 uM treated 12 hrs after nocodazole challenge measured after 24 hrs by flow cytometry; format: functional
[10] = molecular target: Cyclin-dependent kinase 2 (Homo sapiens) (UniProt P24941); test: Inhibition of CDK2 in human HeLa cells by immunoprecipitation kinase assay; format: cell-based
[11] = molecular target: Cyclin-dependent kinase 4 (Homo sapiens) (UniProt P11802); test: Inhibition of CDK4 in human HeLa cells by immunoprecipitation kinase assay; format: cell-based
Sequence of Cyclin-dependent kinase 4 (Homo sapiens) (P11802 whole entry): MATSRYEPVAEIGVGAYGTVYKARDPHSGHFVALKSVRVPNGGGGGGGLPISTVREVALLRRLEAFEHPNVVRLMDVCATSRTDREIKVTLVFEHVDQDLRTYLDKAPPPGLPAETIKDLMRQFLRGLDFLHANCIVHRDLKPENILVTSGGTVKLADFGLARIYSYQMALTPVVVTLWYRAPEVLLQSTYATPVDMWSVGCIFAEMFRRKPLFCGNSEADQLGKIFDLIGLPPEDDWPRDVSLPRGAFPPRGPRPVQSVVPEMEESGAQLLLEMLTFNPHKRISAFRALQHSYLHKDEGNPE

[12] = molecular target: Glycogen synthase kinase-3 beta (Homo sapiens) (UniProt P49841); test: Inhibition of GSK3-beta in human HeLa cells by immunoprecipitation kinase assay; format: cell-based
Sequence of Glycogen synthase kinase-3 beta (Homo sapiens) (P49841 whole entry, looked up): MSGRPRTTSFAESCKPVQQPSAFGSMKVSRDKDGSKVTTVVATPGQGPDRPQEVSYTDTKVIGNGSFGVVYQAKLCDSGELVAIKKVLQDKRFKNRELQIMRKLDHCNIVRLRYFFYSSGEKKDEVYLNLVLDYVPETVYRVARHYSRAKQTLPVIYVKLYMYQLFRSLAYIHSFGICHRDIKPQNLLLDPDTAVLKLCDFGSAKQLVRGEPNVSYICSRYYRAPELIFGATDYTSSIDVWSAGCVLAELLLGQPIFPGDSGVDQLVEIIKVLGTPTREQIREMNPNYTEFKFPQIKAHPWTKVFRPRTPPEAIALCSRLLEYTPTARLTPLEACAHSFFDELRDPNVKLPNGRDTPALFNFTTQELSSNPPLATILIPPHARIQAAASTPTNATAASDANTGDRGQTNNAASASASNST

[13] = tested on: HeLa; test: Decrease in cyclin D3 expression in human HeLa cells at 100 uM by Western blotting; format: functional, cell-based; settings: TDE = time-dependent effect
[14] = tested on: HeLa; test: Increase in p21CIP1 level in human HeLa cells at 100 uM by Western blotting; format: functional, cell-based; settings: TDE = time-dependent effect
[15] = tested on: HeLa; test: Increase in p27KIP1 level in human HeLa cells at 100 uM by Western blotting; format: functional, cell-based; settings: TDE = time-dependent effect
[16] = tested on: HeLa; test: Increase in hypophosphorylated pRb level in human HeLa cells at 100 uM by Western blotting; format: functional, cell-based; settings: TDE = time-dependent effect
[17] = molecular target: Cellular tumor antigen p53 (Homo sapiens) (UniProt P04637); test: Increase in p53-Ser15 phosphorylation in human HeLa cells at 100 uM by Western blotting; format: cell-based
Sequence of Cellular tumor antigen p53 (Homo sapiens) (P04637 whole entry, looked up): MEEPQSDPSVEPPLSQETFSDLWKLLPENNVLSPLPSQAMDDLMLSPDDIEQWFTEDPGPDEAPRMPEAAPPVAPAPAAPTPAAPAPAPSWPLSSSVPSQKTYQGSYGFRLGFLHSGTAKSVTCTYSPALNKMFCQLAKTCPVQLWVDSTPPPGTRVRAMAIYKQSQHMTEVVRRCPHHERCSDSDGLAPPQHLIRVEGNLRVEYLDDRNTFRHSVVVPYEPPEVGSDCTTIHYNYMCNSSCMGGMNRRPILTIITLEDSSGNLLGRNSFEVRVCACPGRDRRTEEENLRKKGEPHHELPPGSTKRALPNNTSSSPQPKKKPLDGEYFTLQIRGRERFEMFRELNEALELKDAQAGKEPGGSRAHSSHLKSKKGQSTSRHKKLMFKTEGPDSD

[18] = tested on: HeLa; test: Increase in ataxia telangiectasia mutated gene expression in human HeLa cells after 12 hrs by RT-PCR relative to control; format: functional
[19] = tested on: HeLa; test: Increase in ataxia telangiectasia mutated gene expression in human HeLa cells after 24 hrs by RT-PCR relative to control; format: functional

Activity [10]: inactive
Activity [11]: inactive
Activity [12]: inactive
Activity [17]: Active
SMILES: C=CC1CC2(O)CC3(O)CCC=CC3C2(O)C1(O)CCC (centres undefined)
Activity [1]: tde
Activity [2]: 68%
Activity [3]: 4%
Activity [4]: 35%
Activity [5]: 37%
Activity [6]: 48%
Activity [7]: 21%
Activity [8]: 52%
Activity [9]: 11%
Activity [13]: tde
Activity [14]: tde
Activity [15]: tde
Activity [16]: tde
fold change (FC) [18]: 3.1
fold change (FC) [19]: 3.8

From ChEMBL document CHEMBL1141027, “HY251, a novel cell cycle inhibitor isolated from Aralia continentalis, induces G1 phase arrest via p53-dependent pathway in HeLa cells” (2009)
